# According to patent publication US20250360166A1, “Cisplatin particles and uses thereof” (CRITITECH, INC., priority 2021, published 2025):
# Legend:
# [1] = Bulk density (10 mL graduated cylinder, modified USP <616> Method I); type: physicochemical; conditions: not tapped
# Protocol: As used herein, the bulk density of the cisplatin particles is the mass of the totality of particles in the composition divided by the total volume they occupy when poured into a graduated cylinder and not tapped. The total volume includes particle volume, inter-particle void volume, and internal pore volume.
# Bulk density analyses were conducted using a 10 mL graduated cylinder due to low sample volume.
# [2] = Particle size distribution by laser diffraction (Malvern Mastersizer 3000, Hydro MV); type: physicochemical; conditions: dispersed in ethyl acetate
# Protocol: Particle size analyses were conducted on a Malvern Mastersizer™ 3000 using the Hydro MV dispersion unit. A non-validated general PSD method/dispersant method was used to analyze the cisplatin samples. The sample preparation procedure performed was as follows: Weigh 10 to 20 mg of cisplatin into a 30-mL vial, add 20 mL of ethyl acetate. Disperse the sample by vortexing then sonicating the suspension in an ultrasonic bath for 1 minute. Then transfer the sample suspension to the Malvern Hydro MV dispersion unit to obtain obscuration between 5 and 15%.
# [3] = Specific surface area by BET sorptometry; type: physicochemical
# Source text: The BET specific surface area test procedure is a compendial method included in both the United States Pharmaceopeia and the European Pharmaceopeia.
# [4] = tested on: H69 tumor cells; test: SCP-Cisplatin pilot study, subcutaneous H69 tumor in NCr nu/nu mice, single intra-tumoral injection; type: in vivo
# Protocol: 55 CR female NCr nu/nu mice 8-12 weeks of age at start date were injected subcutaneously in the flank with 1×10^7 H69 tumor cells in 50% Matrigel; cell injection volume was 0.1 mL/mouse. A pair match was performed when tumors reach an average size of 100-150 mm^3, after which treatment was initiated as detailed in Table 2.
# Tumor cells implanted on Day 0 and treatments initiated on Day 18 (Mean TV=126 mm^3). There were 5 treatment groups (n=5/group); all receiving IT injections =25 uL; 27G needle. The IT vehicle group was administered ethanol/glycerin/water. Animals were sacrificed at humane endpoint of TV=2000 mm^3 or Study Day 51.
Compound,Bulk Density [1],PSD-Master sizer Dv10 [2],PSD-Master sizer Dv50 [2],PSD-Master sizer Dv90 [2],Surface Area [3],tumor volume of surviving animals on Day 51 ([4]; 25 μg/animal intra-tumoral qd × 1),"animals survived on Day 51 ([4]; 25 μg/animal intra-tumoral qd × 1, n=5, endpoint TV=2000 mm^3 or Day 51)"
"N.N.[Cl][Pt][Cl] [Raw, Cisplatin]",1.01 g/mL,1.72 μm,10.9 μm,25.9 μm,2.44 m^2/g,,
N.N.[Cl][Pt][Cl] [Cisplatin],,,,,,increasing tumor volume,3 of 5
